Measured values published in publication PMC11480511 (Scientific Reports, 2024).
In brackets after ≈: the same amount, converted by molar mass. Several values for one entry are separate records, joined by “and”; a condition that tells them apart may be missing. Identical values can stand only once. Like-named read-outs stand apart in the source and are kept apart here.

How the values were obtained:
[1] = test system: MDA-MB231; test: NCI single-dose growth inhibition screen; assay type: cell-based; details: Homo sapiens, MDA-MB-231; Breast Cancer MDA-MB231; single dose 10^−5 M
[2] = test system: K. pneumoniae ATCC 10,031; test: Antibacterial screening, agar cup diffusion method; assay type: cell-based; details: read-out: Minimum inhibitory concentrations (MIC, µM) K. pneumoniae ATCC 10,031
[3] = test system: MDA-MB-468; test: NCI single-dose growth inhibition screen; assay type: cell-based; details: Homo sapiens; Breast Cancer MDA-MB-468; single dose 10^−5 M
[4] = test system: CAKI-1; test: NCI single-dose growth inhibition screen; assay type: cell-based; details: Homo sapiens; Renal Cancer CAKI-1; single dose 10^−5 M
[5] = test system: P. aeruginosa ATCC 27,853; test: Antibacterial screening, agar cup diffusion method; assay type: cell-based; details: Pseudomonas aeruginosa, ATCC27; Gram –ve strain; read-out: Minimum inhibitory concentrations (MIC, µM) P. aeruginosa ATCC 27,853
Procedure: Anti-bacterial activity of the recently synthesized compounds 3a-k was evaluated at AUMC (Assiut University Mycological Centre), Assiut, Egypt. Assays were done against Gram-negative strains of K. pneumoniae (ATCC 100310, E. coli (ATCC 25922), Pseudomonas aeruginosa (ATCC 27853) and the Gram-positive S. aureus (ATCC 6538) strain utilizing standard agar cup diffusion method. The isolates from the four bacterial species examined were kept in TSB (Trypticase Soya Broth, Becton and Dickinson) with 10% glycerol at -70 °C and then subcultured on TSA (Trypticase Soya Agar, Becton and Dickinson) and TSB for 24 h at 37 °C former to inoculation. Bacterial isolates were then plated on sterile petri plates with 1 × 10^8 CFU/mL (0.5 McFarland turbidity) and 20 mL of Mueller Hinton Agar media (Oxoid) was then loaded. To ensure that the microorganisms were evenly dispersed, the plates were gently rotated before being left to harden on a level surface. Four equally spaced spherical-shaped wells (10 mm diameter) were painstakingly drilled using a sterilized cork bore after media solidification. All tested compounds under test underwent two-fold serial dilutions in a sequential manner. Three replications of 100 µL of each concentration were added to a well using a micropipette. Plates were then incubated for 24-hour at 37 °C. The average of the inhibition zones was then calculated. To determine the MICs, the natural logarithm of each diluted test substance’s concentration was plotted against the average area of the related inhibition zone. Following that, a regression line was created and the intercept on the ‘ln concentration” axis was determined, and the antilogarithm was calculated to indicate the MIC value[34],[63].

[6] = test system: PC-3; test: NCI single-dose growth inhibition screen; assay type: cell-based; details: Homo sapiens; Prostate Cancer PC-3; single dose 10^−5 M
[7] = test system: MALME-3 M; test: NCI single-dose growth inhibition screen; assay type: cell-based; details: Homo sapiens; Melanoma MALME-3 M; single dose 10^−5 M
[8] = test system: SR; test: NCI single-dose growth inhibition screen; assay type: cell-based; details: Homo sapiens; Leukemia SR; single dose 10^−5 M
[9] = test system: K-562; test: NCI single-dose growth inhibition screen; assay type: cell-based; details: Homo sapiens, K562; Leukemia K-562; single dose 10^−5 M
[10] = test system: S. aureus ATCC 6538; test: Antibacterial screening, agar cup diffusion method; assay type: cell-based; details: Staphylococcus aureus, ATCC6538; Gram + ve strain; read-out: Minimum inhibitory concentrations (MIC, µM) S. aureus ATCC 6538
[11] = test system: human melanoma LOX IMVI; test: cells; details: for IC50: read-out: In vitro cytotoxicity (IC50) LOX IMVI (µM ± SEM)
[12] = test system: NCI-H522; test: NCI single-dose growth inhibition screen; assay type: cell-based; details: Homo sapiens; Non-Small Cell Lung Cancer NCI-H522; single dose 10^−5 M
[13] = test system: A498; test: NCI single-dose growth inhibition screen; assay type: cell-based, human; details: single dose 10^−5 M; for inhibition at 10 µM: Homo sapiens, A498, Renal Cancer A498
[14] = test system: UACC-62; test: NCI single-dose growth inhibition screen; assay type: cell-based; details: Homo sapiens; Melanoma UACC-62; single dose 10^−5 M
[15] = test system: OVCAR-4; test: NCI single-dose growth inhibition screen; assay type: cell-based; details: Homo sapiens; Ovarian Cancer OVCAR-4; single dose 10^−5 M
[16] = test system: NCI-H23; test: NCI single-dose growth inhibition screen; assay type: cell-based; details: Homo sapiens; Non-Small Cell Lung Cancer NCI-H23; single dose 10^−5 M
[17] = test system: A498 renal cancer cell line; test: cells; details: Homo sapiens; for viability at 0.4 µM / viability at 1.6 µM / viability at 25 µM / viability at 100 µM: A498; for IC50: A498, read-out: In vitro cytotoxicity (IC50) A498 cell line (µM ± SEM)
[18] = test system: SK-MEL-5; test: NCI single-dose growth inhibition screen; assay type: cell-based, human; details: single dose 10^−5 M; for inhibition at 10 µM: Homo sapiens, SK-MEL-5, Melanoma SK-MEL-5
[19] = test system: MOLT-4; test: NCI single-dose growth inhibition screen; assay type: cell-based; details: Homo sapiens; Leukemia MOLT-4; single dose 10^−5 M
[20] = test system: T-47D; test: NCI single-dose growth inhibition screen; assay type: cell-based; details: Homo sapiens, T47D; Breast Cancer T-47D; single dose 10^−5 M
[21] = test system: OVCAR-8; test: NCI single-dose growth inhibition screen; assay type: cell-based; details: Homo sapiens; Ovarian Cancer OVCAR-8; single dose 10^−5 M
[22] = test system: RPMI-8226; test: NCI single-dose growth inhibition screen; assay type: cell-based; details: Homo sapiens; Leukemia RPMI-8226; single dose 10^−5 M
[23] = test system: BT-549; test: NCI single-dose growth inhibition screen; assay type: cell-based; details: Homo sapiens; Breast Cancer BT-549; single dose 10^−5 M
[24] = test system: LOX IMVI; test: NCI single-dose growth inhibition screen; assay type: cell-based, human; details: Melanoma LOX IMVI, single dose 10^−5 M; for inhibition at 10 µM: Homo sapiens, LOX IMVI
[25] = test system: EKVX; test: NCI single-dose growth inhibition screen; assay type: cell-based; details: Homo sapiens; Non-Small Cell Lung Cancer EKVX; single dose 10^−5 M
[26] = test system: ACHN; test: NCI single-dose growth inhibition screen; assay type: cell-based; details: Homo sapiens; Renal Cancer ACHN; single dose 10^−5 M
[27] = test system: NCI-H460; test: NCI single-dose growth inhibition screen; assay type: cell-based; details: Homo sapiens; Non-Small Cell Lung Cancer NCI-H460; single dose 10^−5 M
[28] = test system: SNB-19; test: NCI single-dose growth inhibition screen; assay type: cell-based; details: Homo sapiens; CNS Cancer SNB-19; single dose 10^−5 M
[29] = test system: CCRF-CEM; test: NCI single-dose growth inhibition screen; assay type: cell-based; details: Homo sapiens; Leukemia CCRF-CEM; single dose 10^−5 M
[30] = test system: SNB-75; test: NCI single-dose growth inhibition screen; assay type: cell-based, human; details: Homo sapiens, SNB-75, CNS Cancer SNB-75; single dose 10^−5 M
[31] = test system: DU-145; test: NCI single-dose growth inhibition screen; assay type: cell-based; details: Homo sapiens; Prostate Cancer DU-145; single dose 10^−5 M
[32] = test system: NCI-H322M; test: NCI single-dose growth inhibition screen; assay type: cell-based; details: Homo sapiens; Non-Small Cell Lung Cancer NCI-H322M; single dose 10^−5 M
[33] = test system: MDA-MB-435; test: NCI single-dose growth inhibition screen; assay type: cell-based; details: Homo sapiens; Melanoma MDA-MB-435; single dose 10^−5 M
[34] = test system: SF-268; test: NCI single-dose growth inhibition screen; assay type: cell-based; details: Homo sapiens; CNS Cancer SF-268; single dose 10^−5 M
[35] = test system: SK-MEL-28; test: NCI single-dose growth inhibition screen; assay type: cell-based; details: Homo sapiens; Melanoma SK-MEL-28; single dose 10^−5 M
[36] = Klebsiella pneumoniae, ATCC10, Gram –ve strain

SMILES: O=C(O)c1cn(C2CC2)c2cc(N3CCN(C(=O)CCCN4C(=O)SC(=Cc5ccccc5)C4=O)CC3)c(F)cc2c1=O [3a, 7-[4-[4-[5-benzylidene-2,4-dioxo-thiazolidin-3-yl]butanoyl]piperazin-1-yl]-1-cyclopropyl-6-fluoro-4-oxo-quinoline-3-carboxylic acid]
- inhibition at 10 µM [1]: 25.2%
- MIC ([2]; Gram –ve strain): 0.22 µM (≈ 0.133 µg/mL)
- MIC [2, 36]: 0.13 to 0.8 µM (≈ 0.0786 to 0.484 µg/mL)
- inhibition at 10 µM [3]: 12.9%
- inhibition at 10 µM [4]: 10.9%
- melting point: 238 °C
- MIC [5]: > 20 µM
- inhibition at 10 µM [6]: < 0%
- inhibition at 10 µM [7]: 30.4%
- inhibition at 10 µM [8]: 29.9%
- inhibition at 10 µM [9]: 22.5%
- MIC [10]: > 20 µM
- viability at 0.4 µM [11]: 77.9%
- viability at 1.6 µM [11]: 69.2%
- viability at 25 µM [11]: 48.8%
- viability at 100 µM [11]: 40.4%
- IC50 [11]: 26.7 ± 1.5 µM
- inhibition at 10 µM [12]: 27.4%
- inhibition at 10 µM [13]: 41.4%
- inhibition at 10 µM [14]: 28.6%
- inhibition at 10 µM [15]: 2.5%
- inhibition at 10 µM [16]: 10.2%
- viability at 0.4 µM [17]: 103%
- viability at 1.6 µM [17]: 92.7%
- viability at 25 µM [17]: 69.3%
- viability at 100 µM [17]: 56.1%
- IC50 [17]: > 150 µM
- inhibition at 10 µM [18]: 24.6%
- inhibition at 10 µM [19]: 12.6%
- inhibition at 10 µM [20]: 8.1%
- inhibition at 10 µM [21]: 15.4%
- inhibition at 10 µM [22]: 11.4%
- inhibition at 10 µM [23]: 7.3%
- inhibition at 10 µM [24]: 41.4%
- Growth Inhibition (%) [24]: 53.25% and 53.3%
- inhibition at 10 µM [25]: < 0%
- inhibition at 10 µM [26]: 14.5%
- inhibition at 10 µM [27]: 3.7%
- inhibition at 10 µM [28]: 9.8%
- inhibition at 10 µM [29]: 9.8%
- inhibition at 10 µM [30]: 29.1%
- inhibition at 10 µM [31]: < 0%
- inhibition at 10 µM [32]: 9.4%
- inhibition at 10 µM [33]: 7.8%
- inhibition at 10 µM [34]: 12.4%
- inhibition at 10 µM [35]: 9%

SMILES: O=C(O)c1cn(C2CC2)c2cc(N3CCN(C(=O)CCCN4C(=O)SC(=Cc5cccc6ccccc56)C4=O)CC3)c(F)cc2c1=O [3j, 1-cyclopropyl-6-fluoro-7-[4-[4-[5-(1-naphthylmethylene)-2,4-dioxo-thiazolidin-3-yl]butanoyl]piperazin-1-yl]-4-oxo-quinoline-3-carboxylic acid]
- inhibition at 10 µM [1]: 25.2%
- MIC [2, 36]: > 20 µM
- inhibition at 10 µM [3]: 4.7%
- inhibition at 10 µM [4]: 18%
- melting point: 219 °C
- MIC [5]: > 20 µM
- inhibition at 10 µM [6]: < 0%
- inhibition at 10 µM [7]: 13.1%
- inhibition at 10 µM [8]: 14.1%
- inhibition at 10 µM [9]: 10.9%
- MIC [10]: > 20 µM
- viability at 0.4 µM [11]: 86.5%
- viability at 1.6 µM [11]: 79.4%
- viability at 25 µM [11]: 61.5%
- viability at 100 µM [11]: 48.5%
- IC50 [11]: 110 ± 6.23 µM
- inhibition at 10 µM [12]: 18.5%
- inhibition at 10 µM [13]: 50.9%
- Growth Inhibition (%) ([13]; Renal Cancer A498): 50.9%
- inhibition at 10 µM [14]: 20.4%
- inhibition at 10 µM [15]: 16.4%
- inhibition at 10 µM [16]: 13.1%
- viability at 0.4 µM [17]: 84.7%
- viability at 1.6 µM [17]: 71.9%
- viability at 25 µM [17]: 51.4%
- viability at 100 µM [17]: 42.5%
- IC50 [17]: 33.9 ± 1.91 µM
- inhibition at 10 µM [18]: 46.1%
- Growth Inhibition (%) ([18]; Melanoma SK-MEL-5): 46.1%
- inhibition at 10 µM [19]: 17.5%
- inhibition at 10 µM [20]: 7.5%
- inhibition at 10 µM [21]: 9%
- inhibition at 10 µM [22]: 6.1%
- inhibition at 10 µM [23]: 20.5%
- inhibition at 10 µM [24]: 38.5%
- Growth Inhibition (%) [24]: 38.5%
- inhibition at 10 µM [25]: 9.1%
- inhibition at 10 µM [26]: 11.5%
- inhibition at 10 µM [27]: 3.9%
- inhibition at 10 µM [28]: 20.1%
- inhibition at 10 µM [29]: < 0%
- inhibition at 10 µM [30]: 28.4%
- inhibition at 10 µM [31]: 21.9%
- inhibition at 10 µM [32]: 26.6%
- inhibition at 10 µM [33]: 12.8%
- inhibition at 10 µM [34]: 29.1%
- inhibition at 10 µM [35]: 4.5%
